The subject of this test is glycogenolysis in primary cultures of rat hepatocytes. As to the kind of experiment: Inhibitory potency on glycogenolysis in primary cultures of rat hepatocytes (glucagon-induced glucose production rate). It counts as cell-based. The settings on record: Hepatocyte. The procedure:
Analysis of Test Substances for their Inhibitory Potency on Glycogenolysis in Primary Cultures of Rat Hepatocytes
Hepatocytes were isolated from the livers of fed rats (Sprague-Dawley or Wistar, bodyweight 220-240 g) by means of a standard 2-stage perfusion first with calcium-free buffer solution followed by perfusion with collagenase-containing solution to break up the tissue assembly (Seglen et al, 1979). The cells were incubated in an incubator with 90% humidity at 37° C. and an atmosphere with 5% CO2 in air. The cultivation normally took place with Williams' medium E supplemented with 20 mM glucose, 0.1 mM fructose, 1 μM dexamethasone and 100 nM insulin. Glycogenolysis was induced by changing the culture medium to prewarmed carbogen-gassed Krebs-Henseleit bicarbonate Hepes (20 mM) buffer, pH 7.4, supplemented with 100 nM glucagon (time 0 min). The test substances were normally added at time 0 min as 100× stock solution in DMSO. The final DMSO concentration was not higher than 1% (v/v). The amount of glucose in the culture supernatant was determined after addition of glucagon in the presence and absence of test substance by removing small aliquots of the cell culture supernatant at times 0, 30, 60 and 90 min. The glucose concentration (mM) was determined by enzymatic methods in a biochemical analysis laboratory of Aventis Pharma Deutschland. The glucose production rate was found by linear regression of the glucose concentration at times 30, 60 and 90 min using the following formula:
Glucose production rate (mM/h)=mM glucose (90 min)−mM glucose (30 min).
The percent inhibition was calculated using the following formula: […]
IC50 values (IC50: the concentration (μM) of test substance which brings about a reduction of 50% in the glucose production rate) was estimated by standard curve fitting methods using the percent inhibitions obtained at relevant concentrations of test substance.

Where [1] appears, read: glycogenolysis induced with 100 nM glucagon, 50% reduction in glucose production rate, read-out: IC50 on hep.
[2] abbreviates: comparison examples from WO 01/94300, glucagon-induced glycogenolysis, read-out: IC50 nm hep.

Like-named read-outs stand apart in the source and are kept apart here.

On to `COC(=O)CCCOc1cc(C(=O)O)ccc1NC(=O)NC(=O)c1cc(F)c(F)cc1Cl` [Example 10, 4-[3-(2-Chloro-4,5-difluorobenzoyl)ureido]-3-(3-methoxycarbonylpropoxy)benzoic acid], for which the IC50 under setting [1] was found to be 106 nM.
On to `CC(=O)CCCCCOc1ccc(NC(=O)NC(=O)c2ccc(Cl)cc2Cl)c(F)c1` [Example No. 116 from WO 01/94300, reference compound], for which, under setting [2], the IC50 stood at 13500 nM.
For the compound `O=C(O)COc1cc(C(=O)O)ccc1NC(=O)NC(=O)c1ccc(F)cc1Cl` [Example 2, 3-Carboxymethoxy-4-[3-(2-chloro-4-fluorobenzoyl)ureido]benzoic acid], the IC50 under setting [1] was 1460 nM.
On the same count and under the same terms, then `O=C(O)COc1ccccc1NC(=O)NC(=O)c1ccc(F)cc1Cl` [Example 1, 2-[3-(2-Chloro-4-fluorobenzoyl)ureido]phenoxyacetic acid], with 1160 nM.
As to `CC(=O)CCCCCOc1c(Cl)cc(NC(=O)NC(=O)c2ccc(F)cc2Cl)cc1Cl` [Example No. 105 from WO 01/94300, reference compound], the IC50 under setting [2] worked out at 17500 nM.

The values are drawn from patent US7781459B2, “Carboxyalkoxy-substituted acyl-carboxyphenylurea derivatives and their use as medicaments” (Sanofi-Aventis Deutschland GmbH, priority 2002, dated 2010).
